Consider 14 molecules from US5654296A, “Condensed heterocyclic compounds, their production and use” (priority 1994, dated 1997).

Structures can show the parent of a compound that is named as a salt.

Assay [1] concerns 45Ca2+ uptake (veratrine-stimulated, rat cerebral cortex crude synaptosome fraction). Kind of assay: 45Ca2+ uptake inhibition experiment. In kind it is biochemical. The conditions noted are these: 30 μM veratrine, 37° C., 10 minutes, read-out: 45Ca2+ uptake inhibitory activity (IC50 μM). The method, then:
The rat cerebral cortex was homogenized in 10 volumes of ice-cooled 0.32M sucrose solution to prepare a crude synaptosome fraction (100×G, 10 min., 12000×G, 20 min.). […] To 900 μl of the homogenate was added a DMSO solution of the test drug (10 μl). The mixture was incubated at 37° C. for 10 minutes, followed by addition of 100 μl of a veratrine solution (containing 0.18 uci ^45 Ca^2+) at a final veratrine concentration of 30 μM. The mixture was incubated at 37° C. for 10 minutes, quenched with 4 ml of ice-cooled EGTA solution (120 mM sodium chloride, 5 mM potassium chloride, 5 mM EGTA, pH=7.5) and suction-filtered using a GF/B filter. The filter was washed twice with 4 ml each of a washing solution (132 mM sodium chloride, 5 mM potassium chloride, 1.3 mM magnesium chloride, 1.2 mM calcium, chloride, 20 mM Tris base, pH 7.5) and the radioactivity of […] was measured by the liquid scintillation method.
The ^45 Ca^2+ uptake inhibition rate was calculated by means of the following equation. [formula] A: The ^45 Ca^2+ uptake after 10 minutes' stimulation with 30 μM veratrine in the presence of the test drug
B: The ^45 Ca^2+ uptake in the absence of veratrine and in the presence of the test drug
C: The ^45 Ca^2+ uptake after 10 minutes' stimulation with 30 μM veratrine in the absence of the test drug
D: The ^45 Ca^2+ uptake in the absence of the test drug and in the absence of veratrine

For the next assay, the system named is serotonine (5-HT) uptake. The assay can be described thus: Activity to inhibit serotonine (5-HT) uptake. In kind it is biochemical. The conditions noted are these: rat whole brain; 3H-5-HT 10 nM; 37° C.; pH 7.4; read-out: 5-HT uptake inhibitory activity (IC50 μM). The method, then: (a) Activity to inhibit serotonine (5-HT) uptake
The experiment was performed in accordance with the method of Hyttel et al. [Psychopharmacology 60, 13, 1978]. The whole brain of a rat was homogenized in 40 volumes of ice-cooled 0.32M sucrose solution containing 10 μM pargyline and, then, centrifuged (600×G) for 10 minutes. The supernatant was centrifuged (2500×G) for 55 minutes to provide a pellet. This pellet was suspended in Krebs-Ringer-phosphate buffer (pH 7.4; 122 mM NaCl, 4.82 mM KCl, 0.972 mM CaCl2, 1.21 mM MgSO4, 12.7 mM Na2 HPO4, 2.97 mM NaH2 PO4, 0.162 mM EDTA sodium, 10 mM glucose, 1.14 mM ascorbic acid) saturated with a mixed gas (95% O and 5% CO2). To 900 μl of this suspention was added a solution of the test drug (10 μl) in DMSO and the mixture was incubated at 37° C. for 5 minutes. Then, 100 μl of ^3 H-5-HT (final concentration 10 nM) was added and the mixture was further incubated at 37° C. for 5 minutes. This reaction mixture was filtered under suction using a GF/B filter and the filter was washed with 4 ml of the above-mentioned buffer. The radioactivity on the filter was measured by the liquid scintillation method.
The amount of the drug which caused a 50% decrease in 5-HT uptake is shown as 50% inhibitory activity (IC50) in Table 42.

For the molecule `c1ccc(N2CCN(CCC3(c4ccccc4)COCc4ccccc43)CC2)cc1` (stereo not drawn) [Example I-6, 4-[2-(4-Phenylpiperazin-1-yl)ethyl]-4-phenylisochroman dihydrochloride], the IC50 in assay [1] worked out at 0.32 µM; in the assay with serotonine (5-HT) uptake, 1 µM.

Turning to `c1ccc(C2(CCCN3CCCCCC3)COCc3ccccc32)cc1` (stereo not drawn) [Example I-15, 4-[3-(1-Hexamethyleneimino)propyl]-4-phenylisochroman hydrochloride], in assay [1], the IC50 came to 1.25 µM.

As for `c1ccc(CNCCCC2(c3ccccc3)COCc3ccccc32)cc1` (stereo not drawn) [Example I-18, 4-[3-(Benzylamino)propyl]-4-phenylisochroman hydrochloride], the IC50 in assay [1] is 1.32 µM; in the assay with serotonine (5-HT) uptake, 0.8 µM.

As for `Fc1ccccc1CNCCCC1(c2ccccc2)COCc2ccccc21` (stereo not drawn) [Example I-19, 4-[3-(o-Fluorobenzylamino)propyl]-4-phenylisochroman hydrochloride], in assay [1], the concentration for half-maximal inhibition (IC50) worked out at 1.05 µM.

As to `Clc1ccccc1CNCCCC1(c2ccccc2)COCc2ccccc21` (stereo not drawn) [Example I-20, 4-[3-(o-Chlorobenzylamino)propyl]-4-phenylisochroman hydrochloride], the IC50 in assay [1] was 0.94 µM.

Turning to `c1ccc(C2(CCCNCc3ccccn3)COCc3ccccc32)cc1` (stereo not drawn) [Example I-23, 4-[3-(2-Picolylamino)propyl]-4-phenylisochroman dihydrochloride], in assay [1], the IC50 was 0.5 µM.

With `CN(CCCC1(c2ccccc2)CN=Cc2ccccc21)Cc1ccccc1` (stereo not drawn) [II-7, 4-[3-(N-Benzyl-N-methyl)aminopropyl]-3,4-dihydro-4-phenylisoquinoline dihydrochloride], the IC50 was found to be 0.46 µM in assay [1] and 0.88 µM in the assay on serotonine (5-HT) uptake.

As for `C1=NCC(CCCN2CCN(c3ccccc3)CC2)(c2ccccc2)c2ccccc21` (stereo not drawn) [II-8, 4-Phenyl-4-[3-(4-phenylpiperazin-1-yl)propyl]isoquinoline], the results for the IC50 (in assay [1]; in the assay with serotonine (5-HT) uptake) were 1.84 µM and 0.41 µM, respectively.

For the molecule `Clc1ccc(C2(CCCN3CCN(c4ccccc4)CC3)CN=Cc3ccccc32)cc1` (stereo not drawn) [II-13, 4-(p-Chlorophenyl)-3,4-dihydro-4-[3-(4-phenylpiperazino)propyl]isoquinolinetrihydrochloride], the IC50 in assay [1] worked out at 1.29 µM; in the assay on serotonine (5-HT) uptake, 0.14 µM.

In the case of `CN(CCCC1(c2ccccc2)CNCc2ccccc21)Cc1ccccc1` (stereo not drawn) [III-7, 4-[3-(N-Benzyl-N-methyl)aminopropyl]-1,2,3,4-tetrahydro-4-phenylisoquinoline dihydrochloride], the IC50 in assay [1] came to 1.77 µM; in the assay on serotonine (5-HT) uptake, 0.2 µM.

On to `c1ccc(N2CCN(CCCC3(c4ccccc4)CNCc4ccccc43)CC2)cc1` (stereo not drawn) [III-8, 1,2,3,4-Tetrahydro-4-phenyl-4-[3-(4-phenylpiperazin-1-yl)propyl]isoquinoline trihydrochloride], for which the figures for the IC50 (in assay [1]; with serotonine (5-HT) uptake) were 1.63 µM and 0.16 µM, respectively.

As to `Fc1ccc(N2CCN(CCCC3(c4ccccc4)CNCc4ccccc43)CC2)cc1` (stereo not drawn) [III-9, 4-{3-[4-(p-fluorophenyl)piperazin-1-yl]propyl}-1,2,3,4-tetrahydro-4-phenylisoquinoline dihydrochloride], the results for the IC50 (in assay [1]; in the assay on serotonine (5-HT) uptake) were 1.44 µM and 0.17 µM, respectively.

Turning to `CN1Cc2ccccc2C(CCCN2CCN(c3ccccc3)CC2)(c2ccccc2)C1` (stereo not drawn) [IV-7, 1,2,3,4-Tetrahydro-2-methyl-4-phenyl-4-[3-(4-phenylpiperazin-1-yl)propyl]isoquinoline trihydrochloride], the half-maximal inhibitory concentration (IC50) stood at 1.71 µM in assay [1] and 0.18 µM with serotonine (5-HT) uptake.

`CN1Cc2ccccc2C(CCCN2CCC(c3ccccc3)CC2)(c2ccc(Cl)cc2)C1` (stereo not drawn) [IV-13, 4-(p-Chlorophenyl)-2-methyl-4-[3-(4-phenylpiperidino)propyl]-1,2,3,4-tetrahydroisoquinoline trihydrochloride]: the figures for the IC50 (in assay [1]; in the assay with serotonine (5-HT) uptake) were 0.32 µM and 0.13 µM, respectively.

As usually defined, the IC50 is the concentration at which inhibition is half-maximal.
